How the values were obtained:
βAR kinase [1] = biological target: T1, βAR kinase (Bos taurus, UniProt P21146); assay: Phosphorylation of purified reconstituted β2ARs by purified βAR kinase (Example II); assay type: biochemical, bovine; details: for IC50: 50 μM (−)-isoproterenol, read-out: IC50, inhibition of phosphorylation of reconstituted β2ARs by βAR kinase
T1 construct: βAR kinase was purified from bovine cerebral cortex; from tissue; host or cells: bovine cerebral cortex
T1 sequence (P21146 1-689): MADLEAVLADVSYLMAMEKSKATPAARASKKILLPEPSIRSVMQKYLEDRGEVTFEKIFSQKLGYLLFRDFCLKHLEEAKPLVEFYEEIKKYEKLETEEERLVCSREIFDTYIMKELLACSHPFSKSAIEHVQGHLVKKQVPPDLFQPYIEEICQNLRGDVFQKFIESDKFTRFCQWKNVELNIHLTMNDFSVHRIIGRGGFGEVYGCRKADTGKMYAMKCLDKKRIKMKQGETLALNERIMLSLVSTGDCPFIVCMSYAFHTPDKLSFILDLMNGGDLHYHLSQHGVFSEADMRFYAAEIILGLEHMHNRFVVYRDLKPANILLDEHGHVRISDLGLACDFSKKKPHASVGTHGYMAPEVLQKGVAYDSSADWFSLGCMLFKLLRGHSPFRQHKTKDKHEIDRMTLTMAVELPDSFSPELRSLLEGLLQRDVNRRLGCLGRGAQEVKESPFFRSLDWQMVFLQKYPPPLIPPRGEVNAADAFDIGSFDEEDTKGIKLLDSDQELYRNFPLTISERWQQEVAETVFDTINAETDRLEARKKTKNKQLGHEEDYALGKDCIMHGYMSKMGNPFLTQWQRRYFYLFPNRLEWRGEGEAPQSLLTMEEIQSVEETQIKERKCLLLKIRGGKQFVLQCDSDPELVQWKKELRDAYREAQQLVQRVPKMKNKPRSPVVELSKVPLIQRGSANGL
Protocol: FIG. 7. […] (Inset) Relevant section of a representative autoradiogram. Data are means±SEM of three independent experiments. […] Desensitization was measured as the percent loss of stimulation by 10 μM (−)-isoproterenol of adenylyl cyclase activity in membranes. […] Data are means±SEM of four independent experiments.
Purified β2ARs were inserted into phosphatidylcholine vesicles by chromatography on Extracti-gel, followed by polyethylene glycol treatment and centrifugation at 280,000×g for 90 min (Cerione et al (1984) Biochemistry 23:4519-4525). Phosphorylation of the reconstituted receptors by purified βAR kinase was done in the presence of 50 μM (−)-isoproterenol as described (Benovic et al (1987) J. Biol. Chem. 262:9026-9032). Subsequently, the samples were subjected to sodium dodecyl sulfate polyacrylamide gel electrophoresis on 10% gels (Laemmli (1970) Nature 227:680-685). The phosphorylated β2ARs were visualized by autoradiography, and the corresponding bands were cut out and their content of ^32P quantified.

βAR kinase [2] = biological target: T1, βAR kinase; assay: Phosphorylation of rhodopsin (urea-treated rod outer segments) by βAR kinase; assay type: biochemical, bovine
Protocol: βAR kinase was purified from bovine cerebral cortex by modification of procedure of Benovic et al (J. Biol. Chem. (1987) 262:9026-9032). Briefly, 250 g of bovine cerebral cortex were homogenized with a Brinkmann tissue disrupter and centrifuged (40,000×g, 30 min). The supernatant was then precipitated with 13-26% ammonium sulfate. This material was initially chromatographed on a Ultrogel AcA34 column equilibrated with 5 mM Tris-HCl, pH 7.5, 2 mM EDTA, 10 μg/ml leupeptin, 5 μg/ml pepstatin, 10 μg/ml benzamidine, 0.2 mM phenylmethylsulfonyl fluoride (buffer A). The peak activity was diluted with an equal volume of buffer A containing 0.04% Triton X-100 before being applied to a DEAE-Sephacel column. Elution was accomplished with a 0-80 mM NaCl gradient in buffer A containing 0.02% Triton X-100. The peak activity was then applied to a CM-Fractogel column and eluted with a 0-100 mM NaCl gradient in buffer A containing 0.02% Triton X-100. The purified kinase is stable at 4° C. for several months. For these studies the βAR kinase preparations were >75% pure.
Rod outer segments were prepared from bovine retinas by stepwise sucrose gradient centrifugation (Wilden et al Biochemistry (1982) 21:3014-3022). Rhodopsin kinase-free rod outer segments were prepared by treatment with 5 M urea (Shichi et al J. Biol. Chem. (1978) 253:7040-7046) and consisted of ˜95% rhodopsin, as assessed by Coomassie Blue staining of sodium dodecyl sulfate-polyacrylamide gels.
Urea-treated rod outer segments were phosphorylated with βAR kinase as follows. Urea-treated rod outer segments (˜4 μg of rhodopsin) were incubated with βAR kinase (˜0.1 μg) for 10-15 min at 30° C. in the presence of 40 mM Tris-HCl, pH 7.4, 10 mM NaCl, 5 mM MgCl2, 1.5 mM EDTA, and 65 μM ATP (˜1 cpm/fmol) (total reaction volume was 40 μl). Reactions were stopped by the addition of 40 μl of sodium dodecyl sulfate sample buffer (see below) followed by sodium dodecyl sulfate-polyacrylamide gel electrophoresis. After autoradiography, the phosphorylated rhodopsin bands were excised and counted.
Sodium dodecyl sulfate-polyacrylamide gel electrophoresis was performed by the method of Laemmli (Nature (1970) 227:680-685) using 10% homogeneous polyacrylamide slab gels. Sample buffer contained 8% sodium dodecyl sulfate, 10% glycerol, 5% 3-mercaptoethanol, 25 mM Tris-HCl, pH 6.5, and 0.003% bromphenol blue. After electrophoresis, gels were dried with a Bio-Rad gel dryer prior to autoradiography.

Inhibition of βAR kinase, % (βAR kinase [1]; 0.1 μM): 96 ± 1% | IC50 (βAR kinase [1]; listed as heparin): 6.1 ± 2 nM | IC50 (βAR kinase [1]): 6 nM | extent of inhibition of β2AR phosphorylation (βAR kinase [1]; at 30-100 nM): almost complete inhibition | Hill coefficient of inhibition (βAR kinase [2]; data of FIG. 1): ~2 | IC50 (βAR kinase [2]; read-out: IC50 (concentration of compound which gave 50% inhibition of βAR kinase), rhodopsin as substrate): 150 nM | IC50 (concentration of compound which gave 50% inhibition of βAR kinase) (βAR kinase [2]; rhodopsin as substrate, mean ± S.E.): 0.77 ± 0.10 µg/mL
Substance: heparin

Source: patent US6605424B1, “Method of detecting inhibitors of agonist-specific desensitization” (Duke University, priority 1989, dated 2003)
